Results: patent US11371097B2, “Articles for diagnosis of liver fibrosis” (THE GOVERNMENT OF THE UNITED STATES, as represented by THE …, priority 2015, dated 2022)
Where “and” joins values, the source holds several entries; their conditions need not be identical. Equal values may be shown once. Read-outs that look alike come from different tables or passages of the source.

Key:
liver [1] = format: in vivo, Male Sprague-Dawley rats; conditions: for Periportal fibrosis (Masson's trichrome): 162 mg/kg/day, five-day oral administration
liver [2] = conditions: 5-7 days oral administration or intraperitoneal injection, various doses; cited from earlier work
[3] = system: 67 genes on the fibrosis gene panel; test: Multiplexed fibrosis gene panel (QuantiGene 2.0 Plex / Bioplex) on liver RNA
Method: mRNA is isolated and purified from lysed tissue biopsy specimens. The target mRNA is incubated with beads conjugated to capture probes (each probe is an oligonucleotides specific for one of the genes in the panel). The target is hybridized to the probe by a capture extender-capture probe interaction. Specific mRNA targets hybridize overnight to the respective beads. The signal is amplified by incubating mRNA-capture probe pairs by affixing an amplifier affixed to a biotinylated label probe. Streptavidin-conjugated phycoerythrin (SAPE) is bound to the biotinylated probe to amplify the signal. The signal is detected and quantified by Bioplex suspension array instrumentation, which measures the SAPE fluorescence signal proportional to the amount of mRNA transcripts captured by the bead.
Candidate genes identified by co-expression modules and pathway/network approaches were fabricated into a custom gene panel using a commercial source (the QuantiGene 2.0 Plex assay, Affymetrix, Santa Clara, Calif.). A total of 71 genes plus 3 housekeeping genes were selected. Using 150 ng RNA input, samples were processed following manufacturer's instructions for purified RNA with use of the HandHeld Magnetic Plate Washer. Plates were read immediately following the final wash using the BioPlex 200 instrument (BioRad, Hercules, Calif.). The following parameters were set on the BioPlex instrument: sample size=100 μL; DD Gate=5,000-25,000; Timeout=45 sec; Bead Event/Bead Region=100.
For each sample, the average signal intensity was determined as recommended by the manufacturer. Duplicates were averaged. The average background signal for each gene was subtracted. Assay limit of detection was determined by adding three standard deviations of assay background signals to the average intensity of the background control wells. All intensities lower than the limit of detection for each probe was set to one unit above the probe's limit of detection. Probes with all intensities below the assay limit of detection were removed from the final analysis. The test gene signal was divided by the average intensities of the three normalization genes (Gapdh, Hprt1, Ppib). For each test gene, the fold change was calculated by dividing the normalized value for the treated samples by the normalized value of the vehicle-treated controls. Fold changes were plotted as log2 fold change. Gene expression data were imported into Partek Genomics Suite 6.0 (Partek, Inc., St. Louis, Mo.). Principal component analysis was used for multivariate interpretation to determine sources of variation across sample groups (Joliffe I T, Morgan B J. Principal component analysis and exploratory factor analysis. Statistical methods in medical research 1992; 1(1):69-95). Differentially expressed genes were determined by analysis of variance (ANOVA) with contrasts, setting the ANOVA factors as toxicant and the histopathological endpoint of fibrosis (any score >0). ANOVA variables were fibrosis score 0 (none) vs. score of >0 (minimal, mild, moderate, and marked). For hierarchical biclustering, differentially expressed genes were standardized by setting the genes expressed to a mean of zero and scaling to a standard deviation of one. Euclidean geometry was used to cluster row and column dissimilarity using a method of average linkage.
Chemical-dose groups were down-selected based on histopathology to conform to the 96-well assay format of the multiplexed panel of presumptive fibrosis genes. Three of the four dose groups were evaluated for the fibrogenic chemicals allyl alcohol and 4,4′-methylenedianiline. A single dose was selected with group-matched vehicle controls for each of the remaining chemicals. […] The highest dose of bromobenzene was selected because the vacuolation pathology was only observed at this dose.
Isolated liver RNA was incubated with microbead-bound capture probes specific for the 71 presumptive fibrogenic genes and three housekeeping normalization genes.

[4] = 4,4′-MDA 22 mg/kg, animals 89-92
[5] = 4,4′-MDA 59.7 mg/kg, animals 93-96
[6] = 4,4′-MDA 162 mg/kg, animals 97-100
[7] = liver RNA, individual animals, Carbon Tetrachloride 200, Bromobenzene 785, Dexamethasone 1 mg/kg
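For Inflammation in this document: Severity grades from None 0% through Minimal Mild Moderate to Marked over 80% tissue affected.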
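For Vacuolation in this document: Severity grades from None 0% through Minimal Mild Moderate to Marked over 80% tissue affected.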

## Nc1ccc(Cc2ccc(N)cc2)cc1 [4,4′-methylenedianiline]
Liver [1]
  Periportal fibrosis (Masson's trichrome): periportal fibrosis
Liver [1]; listed as 4,4′-methylenediani line
  Periportal fibrosis (Masson's trichrome): Perioportal fibrosis was confirmed
Liver [1]; [4]
  Bile Duct Hyperplasia and Fibroplasia: 0
  Inflammation: 0
  Necrosis: 0
  Vacuolation: 0
Liver [1]; [5]
  Bile Duct Hyperplasia and Fibroplasia: 2 and 3
  Inflammation: 2 and 3
  Vacuolation: 0
Liver [1]; [6]
  Bile Duct Hyperplasia and Fibroplasia: 3 and 2
  Cytoplasmic Alteration: 2 and 3
  Inflammation: 2
  Necrosis: 2 and 1
  Vacuolation: 0
Liver [1]; across dose groups, five days (figure legend)
  Combined histopathological scores as percent of animals with pathology: dose-dependent increase in severe pathology
Liver [1]; low-dose (carbon tetrachloride: all doses)
  Fibrosis histopathology: without fibrosis
Liver [1]; oral gavage five days, across doses
  Degree of fibrosis: dose-dependent increase in the degree of fibrosis
Liver [1]; oral gavage five days, high doses
  Histopathology: bile duct hyperplasia, fibrosis, necrosis: caused bile duct hyperplasia comorbid with fibrosis and necrosis
Liver [2]
  Fibrosis score in the DrugMatrix study: scored fibrosis-positive
[3]; [5]
  Anxa2 differential expression: 2.439 and 1.755 and 2.514
  Arpc1b differential expression: 1.147 and 1.069 and 1.373
  C1qb differential expression: 0.893 and 0.937 and 1.469
  CD53 differential expression: 0.950 and 1.045 and 1.560
  Capg differential expression: 1.169 and 1.723 and 2.026
  Ccl2 differential expression: 1.483 and 1.928 and 1.705
  Ctgf differential expression: 1.026 and 0.691 and 1.013
  Cxcl16 differential expression: 1.969 and 1.196 and 2.174
  Cyba differential expression: 1.216 and 1.165 and 2.041
  Dsc2 differential expression: 0.258 and 0.244 and 0.474
  Fam102b differential expression: 0.577 and 0.939 and 0.845
  Fam105a differential expression: 1.236 and 1.186 and 1.900
  Fxyd5 differential expression: 1.025 and 0.916 and 1.613
  Gpnmb differential expression: 1.876 and 1.911 and 3.162
  Itga1 differential expression: 1.064 and 1.196 and 1.743
  Itgb2 differential expression: 0.709 and 1.138 and 1.216
  Lame2 differential expression: 1.485 and 0.755 and 1.416
  Lbp differential expression: 2.023 and 1.422 and 2.026
  Lgals3 differential expression: 1.931 and 2.085 and 2.575
  Pkm2 differential expression: 1.314 and 1.491 and 2.389
  Plau differential expression: 0.941 and 0.957 and 1.332
  RT1-DMa differential expression: 1.381 and 2.022 and 2.522 and 1.938
  RT1-Da differential expression: 1.431 and 2.375 and 2.640
  Serpine1 differential expression: 1.151 and 1.305 and 1.475
  TagIn2 differential expression: 1.404 and 1.169 and 1.971
  Timp1 differential expression: 1.871 and 1.153 and 2.099
[3]; [6]
  RT1-DMa differential expression: 1.970 and 1.713 and 2.157 and 1.814
[3]; liver, 67 genes
  Hierarchical biclustering of log2 fold-changes in panel gene expression: clustered together

## C[C@@H]1C[C@H]2[C@@H]3CCC4=CC(=O)C=C[C@]4(C)[C@@]3(F)[C@@H](O)C[C@]2(C)[C@@]1(O)C(=O)CO [dexamethasone]
Liver [1]; highest dose (300 mg/kg)
  Tissue necrosis: moderate tissue necrosis affecting >60-80% of the tissue in two animals
Liver [1]; rat, in vivo
  Combined histopathological scores as percent of animals with pathology: dose-dependent increase in severe pathology
  Cytoplasmic Alteration: marked cytoplasmic alteration characteristic of glycogen accumulation
  Histopathological evidence of vacuolation and/or glycogen accumulation: correlated with histopathological evidence of vacuolation and/or glyocgen accumulation
[3]; [7]
  Differential Expression of A2m: −1.370 and −0.649 and −0.615 and −0.252
  Differential Expression of Angptl3: 0.029 and −0.467 and −0.241
  Differential Expression of Anxa2: 0.519 and 0.194 and −0.132 and 0.293
  Differential Expression of Apoc: −0.250 and −0.067 and −0.469 and −0.542
  Differential Expression of Arf6: −0.268 and −0.346 and −0.401 and 0.005
  Differential Expression of Arpc1b: −1.391 and −2.770 and −5.994 and −0.172
  Differential Expression of Arrb1: −0.840 and −2.152 and −3.043 and 0.703
  Differential Expression of C1qb: −0.174 and −0.655 and −0.257 and −0.222
  Differential Expression of CD9: 0.155 and −0.656 and −0.280 and 0.387
  Differential Expression of CD53: −0.716 and −3.901 and −5.862 and 0.006
  Differential Expression of CP: −0.134 and −0.634 and −0.952 and −0.558
  Differential Expression of Capg: −0.558 and −0.744 and −0.772 and −0.404
  Differential Expression of Ccl2: −0.272 and 0.250 and 0.043 and 1.019
  Differential Expression of Col1a1: −4.640 and −3.775 and −5.473 and −0.928
  Differential Expression of Col1a2: −0.960 and −1.057 and −2.208 and −1.081
  Differential Expression of Col4a1: −1.039 and −1.035 and −1.397 and −0.880
  Differential Expression of Col5a2: −0.407 and −0.910 and −2.382 and 0.311
  Differential Expression of Ctgf: −0.755 and 0.747 and −0.663 and 0.405
  Differential Expression of Cxcl1: 0.104 and 1.127 and 0.364 and 0.097
  Differential Expression of Cxcl12: −1.808 and −3.742 and −2.144 and −1.869
  Differential Expression of Cxcl16: −0.537 and −4.885 and 0.714
  Differential Expression of Cyba: −0.998 and −1.793 and −1.244 and −0.956
  Differential Expression of Dsc2: −0.209 and −0.593 and −0.466 and −0.248
  Differential Expression of Fam102b: −0.462 and −0.124 and −0.822 and −0.262
  Differential Expression of Fam105a: −0.295 and 0.195 and −0.809 and −0.294
  Differential Expression of Fbn1: −1.213 and −1.784 and −2.160 and −1.736
  Differential Expression of Fn1: 0.397 and 0.181 and −0.334 and −0.170
  Differential Expression of Fstl1: −1.085 and −1.346 and −1.183 and −0.931
  Differential Expression of Fxyd5: −0.247 and −0.412 and −0.305
  Differential Expression of Gpnmb: −0.018 and 1.304 and 0.968 and 1.447
  Differential Expression of Igfals: −0.678 and −2.820 and −1.013 and −1.310
  Differential Expression of Igfbp1: 1.132 and 1.740 and 0.780 and 0.489
  Differential Expression of Igfbp2: −0.258 and −0.949 and −1.156 and −0.041
  Differential Expression of Igfbp3: −1.125 and −1.454 and −2.523 and −1.663
  Differential Expression of Itga1: −2.088 and −3.379 and −2.849 and −1.903
  Differential Expression of Itgb2: −1.330 and −2.265 and −1.982 and −0.802
  Differential Expression of Lame2: −0.132 and 0.260 and −1.038 and 0.536
  Differential Expression of Lbp: 0.344 and −0.042 and 0.261 and −0.020
  Differential Expression of Len2: −0.470 and 0.418 and 0.883 and 0.535
  Differential Expression of Lgals1: 0.458 and −4.140 and −0.346 and 0.583
  Differential Expression of Lgals3: 0.011 and 0.320 and 0.370 and 0.526
  Differential Expression of Lgals3bp: −1.477 and −0.782 and −1.281 and −0.669
  Differential Expression of Lox: 0.278 and 0.412 and −0.164
  Differential Expression of Lrp1: −0.206 and −0.631 and −0.863 and −0.371
  Differential Expression of Lum: 0.593 and 0.401 and −0.997 and −0.078
  Differential Expression of Mmp2: −0.245 and −1.273 and −0.990 and −0.583
  Differential Expression of Nid1: −1.271 (2×) and −1.374 and −1.155
  Differential Expression of Pcolce: −1.293 and −1.196 and −1.572 and −0.246
  Differential Expression of Pkm2: −0.668 and −0.611 and −0.735 and −0.472
  Differential Expression of Plat: 0.103 and 0.075 and −0.461 and −0.335
  Differential Expression of Plau: −0.719 and −2.088 and −1.424 and −0.095
  Differential Expression of Plod2: −0.065 and 0.269 and −0.568 and −0.077
  Differential Expression of RT1-DMa: 3.152 and 2.497 and 3.371 and 2.417
  Differential Expression of RT1-Da: −4.927 and −7.563 and −4.272 and −3.443
  Differential Expression of S100A6: 0.650 and −0.047 and 0.843 and 0.695
  Differential Expression of S100A11: −0.377 and −0.570 and −0.732 and −0.465
  Differential Expression of Serpine1: 0.251 and 1.560 and 0.110 and 0.038
  Differential Expression of Serping1: 0.154 and 0.026 and −0.228 and 0.065
  Differential Expression of Slc25a24: −0.387 and −0.565 and −0.427
  Differential Expression of Sod2: −0.398 and −0.428 and −0.371 and −0.367
  Differential Expression of TagIn2: −0.486 and −0.918 and −0.563 and −0.566
  Differential Expression of Tgfb1: −1.193 and −1.526 and −1.328 and −1.429
  Differential Expression of Timp1: 0.026 and 0.464 and −0.134 and 1.004
  Differential Expression of Vhl: −0.300 and −1.037 and −0.787 and 0.504
  Differential Expression of Vim: −0.856 and −1.292 and −1.277
  Differential Expression of Vtn: −0.111 and −0.294 and −0.579 and −0.572
